The supplement of paper PMC10307832

Columns and labels:
Assay in all cases: relative viability (nuclei count vs DMSO), 5 days (fraction); higher = more cells survive
[1] = compound: C[As](C)SC[C@H](NC(=O)CC[C@H](N)C(=O)O)C(=O)NCC(=O)O [Darinaparsin] + CS(=O)(=O)N1CCN(Cc2cc3nc(-c4cccc5[nH]ncc45)nc(N4CCOCC4)c3s2)CC1 [Pictilisib] (partner 1 µM)
In short: (§1)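 Lung cancer cell lines in 1536-well plates were dosed by pin tool the day after seeding, either with one drug alone or with a fixed anchor-drug dose plus five library-drug doses (not always all listed) in √10 steps. After 5 days, cells were fixed and their nuclei stained in one step (final 0.05% Triton X-100, 1% formaldehyde, 1 ug/ml Hoechst), then counted on 4× images. Relative viability is the nuclei count in treated wells divided by that in vehicle wells. Values are medians of duplicate plates.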

[2] = compound: C[As](C)SC[C@H](NC(=O)CC[C@H](N)C(=O)O)C(=O)NCC(=O)O [Darinaparsin] + CC(C)C[C@H](NC(=O)[C@H](Cc1ccccc1)NC(=O)c1cnccn1)B(O)O [Bortezomib] (partner 0.002 µM)
In short: as §1

QS11 + Tozasertib = compound: C1CC2=C(C1)C=C(C=C2)OC3=NC(=C4C(=N3)N(C=N4)CC5=CC=C(C=C5)C6=CC=CC=C6)N[C@@H](CC7=CC=CC=C7)CO [QS11] + Cc1cc(Nc2cc(N3CCN(C)CC3)nc(Sc3ccc(NC(=O)C4CC4)cc3)n2)n[nH]1 [Tozasertib] (partner 0.1 µM)
In short: as §1

Darinaparsin + Olaparib = compound: C[As](C)SC[C@H](NC(=O)CC[C@H](N)C(=O)O)C(=O)NCC(=O)O [Darinaparsin] + O=C(c1cc(Cc2n[nH]c(=O)c3ccccc23)ccc1F)N1CCN(C(=O)C2CC2)CC1 [Olaparib] (partner 8 µM)
In short: as §1

Row | Cell Line | relative viability ([1]; first compound 0.08 µM) | relative viability ([1]; first compound 0.8 µM) | relative viability ([1]; first compound 2.53 µM) | relative viability ([1]; first compound 8 µM) | relative viability ([2]; first compound 0.08 µM) | relative viability ([2]; first compound 0.8 µM) | relative viability ([2]; first compound 2.53 µM) | relative viability ([2]; first compound 8 µM) | relative viability (QS11 + Tozasertib; first compound 0.08 µM) | relative viability (QS11 + Tozasertib; first compound 0.253 µM) | relative viability (QS11 + Tozasertib; first compound 0.8 µM) | relative viability (QS11 + Tozasertib; first compound 2.53 µM) | relative viability (QS11 + Tozasertib; first compound 8 µM) | relative viability (Darinaparsin + Olaparib; first compound 0.08 µM) | relative viability (Darinaparsin + Olaparib; first compound 0.8 µM) | relative viability (Darinaparsin + Olaparib; first compound 2.53 µM) | relative viability (Darinaparsin + Olaparib; first compound 8 µM)
1 | NCI-H2023 | 0.284 | 0.193 | 0.217 | 0.262 | 1.36 | 0.956 | 0.892 | 1.06 | 0.381 | 0.38 | 0.276 | 0.222 | 0.219 | 0.721 | 0.407 | 0.416 | 0.434
2 | COR-L23 | 1.06 | 0.706 | 0.41 | 0.932 | 1.64 | 0.995 | 0.77 | 1.17 | 0.17 | 0.177 | 0.137 | 0.156 | 0.141 | 0.331 | 0.323 | 0.316 | 0.358
3 | NCI-H1734 | 0.534 | 0.473 | 0.421 | 0.559 | 1.37 | 0.937 | 0.854 | 0.986 | 0.25 | 0.273 | 0.28 | 0.246 | 0.316 | 0.73 | 0.561 | 0.627 | 0.641
4 | NCI-H23 | 0.431 | 0.494 | 0.444 | 0.603 | 1.17 | 1.19 | 0.795 | 1.14 | 0.277 | 0.413 | 0.273 | 0.253 | 0.266 | 0.293 | 0.291 | 0.363 | 0.331
5 | NCI-H647 | 0.449 | 0.396 | 0.488 | 0.47 | 1.79 | 1.17 | 0.802 | 1.17 | 0.287 | 0.268 | 0.291 | 0.323 | 0.197 | 0.681 | 0.601 | 0.382 | 0.604
6 | NCI-H1915 | 0.99 | 0.902 | 0.955 | 0.991 | 1.08 | 1.03 | 0.844 | 1.25 | 0.472 | 0.494 | – | 0.432 | 0.374 | 0.259 | 0.22 | 0.269 | 0.272
7 | 201T | 0.757 | 0.622 | 0.623 | 0.767 | 1.1 | 1.09 | 1.06 | 1.15 | 0.956 | 1.03 | 0.694 | 0.892 | 0.584 | 0.942 | 0.851 | 0.803 | 0.863
8 | NCI-H3122 | 0.711 | 0.583 | 0.636 | 0.707 | 1.04 | 1.02 | 1.08 | 1.13 | 0.45 | 0.496 | – | 0.374 | 0.201 | 0.796 | 0.589 | 0.572 | 0.791
9 | HCC-78 | 0.191 | 0.228 | 0.246 | 0.267 | 0.464 | 0.59 | 0.482 | 0.55 | 0.404 | 0.57 | 0.401 | 0.462 | 0.449 | 0.884 | 0.712 | 0.851 | 0.955
10 | HARA | 0.393 | 0.371 | 0.324 | 0.413 | 1.49 | 1.12 | 1.06 | 1.25 | 0.0847 | 0.117 | – | 0.0916 | 0.102 | 0.598 | – | 0.769 | 0.779
11 | NCI-H2347 | 0.708 | 0.636 | 0.694 | 0.783 | 1.18 | 0.742 | 0.831 | 1.16 | 0.434 | 0.523 | 0.51 | 0.436 | 0.572 | 0.646 | 0.472 | 0.559 | 0.577
12 | NCI-H1437 | 0.468 | 0.409 | 0.395 | 0.391 | 0.562 | 0.558 | 0.468 | 0.584 | 0.44 | 0.45 | 0.398 | 0.344 | 0.304 | 0.705 | 0.623 | 0.615 | 0.689
13 | LXF-289 | 0.806 | 0.749 | 0.597 | 0.981 | 1.09 | 1.03 | 0.81 | 1.19 | 0.159 | 0.197 | 0.147 | 0.213 | 0.253 | 1.46 | 1.09 | 0.841 | 1.03
14 | LU99A | 0.336 | 0.313 | 0.294 | 0.322 | 1.33 | 1.01 | 1.17 | 1.21 | 0.269 | 0.285 | 0.273 | 0.296 | 0.245 | 0.275 | 0.252 | 0.125 | 0.246
15 | NCI-H1666 | 0.418 | 0.458 | 0.454 | 0.53 | 0.916 | 0.882 | 0.978 | 0.847 | 0.61 | 0.532 | 0.515 | 0.521 | 0.383 | 0.734 | 0.746 | 0.834 | 0.72
16 | LOU-NH91 | 0.535 | 0.492 | 0.553 | 0.56 | 0.495 | 0.56 | 0.537 | 0.519 | 0.67 | 0.647 | 0.629 | 0.597 | 0.572 | 0.932 | 0.869 | 0.912 | 0.964
17 | RERF-LC-KJ | 0.576 | 0.571 | 0.522 | 0.44 | 1.33 | 1.14 | 1.14 | 1.12 | 0.521 | 0.429 | 0.42 | 0.274 | 0.274 | 1.12 | 0.859 | 0.924 | 0.775
18 | NCI-H2085 | 0.553 | 0.419 | 0.455 | 0.44 | 0.987 | 0.996 | 1.07 | 1.16 | 0.803 | 0.77 | 0.479 | 0.531 | 0.467 | 0.866 | 0.775 | 0.792 | 0.745
19 | HCC-366 | 0.108 | 0.13 | 0.158 | 0.162 | 1.71 | 1.11 | 0.768 | 1.94 | 0.133 | 0.0935 | – | 0.0603 | 0.0521 | 0.502 | – | 0.328 | 0.42
